Source: publication PMC8910297, “Investigation of the Molecular Details of the Interactions of Selenoglycosides and Human Galectin-3” (International Journal of Molecular Sciences, 2022)
Where two headings read alike, the source gives them in different places.

Legend:
[1] = molecular target: T1, Human galectin-3 (hGal-3) (Homo sapiens, UniProt P17931); experiment: biochemical
T1 construct: gene LGALS3

[2] = molecular target: T1, Human galectin-3 (hGal-3); experiment: biochemical; remark: listed apart in the source

T1 sequence (P17931 108-250): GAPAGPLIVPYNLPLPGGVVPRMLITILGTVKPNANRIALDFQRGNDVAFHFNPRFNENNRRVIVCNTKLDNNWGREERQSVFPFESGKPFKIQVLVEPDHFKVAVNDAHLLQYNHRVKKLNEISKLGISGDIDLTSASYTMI

Structure (SMILES) | Kd [1] [mM] | Kd [2] [µM]
OC[C@H]1O[C@@H]([Se][Se][C@@H]2O[C@H](CO)[C@H](O)[C@H](O)[C@H]2O)[C@H](O)[C@@H](O)[C@H]1O [DSeDG, di(β-D-galactopyranosyl)diselenide] | 8.5 ± 2.5 | –
OC[C@H]1O[C@@H]([Se][C@@H]2O[C@H](CO)[C@H](O)[C@H](O)[C@H]2O)[C@H](O)[C@@H](O)[C@H]1O [SeDG, di(β-D-galactopyranosyl)selenide] | – | 35.2 ± 7.2
